Results: patent publication US20260337153A1, “IONIZABLE AMINE LIPIDS” (Intellia Therapeutics, Inc., priority 2023, published 2026)

What was measured:
[1] = LNP encapsulation efficiency of RNA (Ribogreen fluorescence assay); assay type: physicochemical; conditions: sgRNA:mRNA 1:2
Description: (§1) LNP compositions are analyzed for average particle size, polydispersity index (pdi), total RNA content, encapsulation efficiency of RNA, and zeta potential. LNP compositions may be further characterized by lipid analysis, AF4-MALS, NTA, and/or cryo-EM.
Encapsulation efficiency is calculated as (Total RNA−Free RNA)/Total RNA. A fluorescence-based assay (Ribogreen®, ThermoFisher Scientific) is used to determine total RNA concentration and free RNA. LNP samples are diluted appropriately with 1×TE buffer containing 0.2% Triton-X 100 to determine total RNA or 1×TE buffer to determine free RNA. Standard curves are prepared by utilizing the starting RNA solution used to make the compositions and diluted in 1×TE buffer+/−0.2% Triton-X 100. Diluted RiboGreen® dye (according to the manufacturer's instructions) is then added to each of the standards and samples and allowed to incubate for approximately 10 minutes at room temperature, in the absence of light. A SpectraMax M5 Microplate Reader (Molecular Devices) is used to read the samples with excitation, auto cutoff and emission wavelengths set to 488 nm, 515 nm, and 525 nm respectively. Total RNA and free RNA are determined from the appropriate standard curves. Alternatively, the total RNA concentration can be determined by a reverse-phase ion-pairing (RP-IP) HPLC method. Triton X-100 is used to disrupt the LNPs, releasing the RNA. The RNA is then separated from the lipid components chromatographically by RP-IP HPLC and quantified against a standard curve using UV absorbance at 260 nm.
(§2) In vivo editing efficiency for materials delivered with formulations including various amine lipid (or ionizable lipid) compounds in Experiments 1 through 14 as described in Tables 3 and 4 was assessed. Editing was measured using G000534 (SEQ ID NO: 5) which targets the rat TTR gene. Lipids described above were assessed for efficacy through in vivo editing experiments. LNPs were formulated at a 1:2 w/w ratio of sgRNA (SEQ ID NO: 5) and Cas9 mRNA (SEQ ID NO: 3). In Experiments 1 through 13, lipid components of the LNP are formulated in a molar ratio of 50% ionizable lipid, 38% cholesterol, 9% DSPC, and 3% PEG2K-DMG. In Experiment 14, lipid components of the LNP are formulated in a molar ratio of 50% ionizable lipid, 38% cholesterol, 9% DSPC, and 3% C13 Ether. The final LNPs used in different in vivo editing experiments were characterized to determine the encapsulation efficiency (% E), polydispersity index (PDI), and average particle size (Z-avg and number mean) according to the analytical methods provided above. The pKa values of each of the following ionizable lipids were also measured to be in the range of about 5.8 to about 7.6.
(§3) In vivo editing efficiency for materials delivered with formulations including various combinations of amine lipid (or ionizable lipid) and PEG lipid compounds was assessed as described in Tables 5 and 6. Editing was measured using G000534 (SEQ ID NO: 5) which targets the rat TTR gene. Lipids described above were assessed for efficacy through in vivo editing experiments. LNPs were formulated at a 1:2 w/w ratio of sgRNA (SEQ ID NO: 5) and Cas9 mRNA (SEQ ID NO:3). Lipid components of the LNP are formulated in a molar ratio of 50% ionizable lipid, 38% cholesterol, 9% DSPC, and 3% of various PEG lipids (e.g., PEG2K-DMG, C13 Ether, C14 Ether). The final LNPs used in different in vivo editing experiments were characterized to determine the encapsulation efficiency (% E), polydispersity index (PDI), and average particle size (Z-avg and number mean) according to the analytical methods provided above. The pKa values of each of the following ionizable lipids were also measured to be in the range of about 5.8 to about 7.6.
In vivo editing efficiency for materials delivered with formulations including various amine lipid (or ionizable lipid) compounds as described in Tables 7 and 8 was assessed. […]

[2] = LNP average particle size and polydispersity by dynamic light scattering; assay type: physicochemical; conditions: sgRNA:mRNA 1:2
Description: Dynamic Light Scattering (“DLS”) is used to characterize the polydispersity index (“pdi” or “PDI”) and size of the LNPs of the present disclosure. DLS measures the scattering of light that results from subjecting a sample to a light source. PDI, as determined from DLS measurements, represents the distribution of particle size (around the mean particle size) in a population, with a perfectly uniform population having a PDI of zero.
as §1
Average particle size and polydispersity are measured by dynamic light scattering (DLS) using a Malvern Zetasizer DLS instrument. LNP samples were diluted with PBS buffer prior to being measured by DLS. Z-average diameter (“Z-avg”) which is an intensity-based measurement of average particle size was reported along with number average diameter (“number mean”) and PDI. A Malvern Zetasizer instrument is also used to measure the zeta potential of the LNP. Samples are diluted 1:17 (50 μL into 800 μL) in 0.1×PBS, pH 7.4 prior to measurement.
as §2, §3
In vivo editing efficiency for materials delivered with formulations including various amine lipid (or ionizable lipid) compounds as described in Tables 7 and 8 was assessed. Editing was measured using G000534 (SEQ ID NO: 5) which targets the rat TTR gene. Lipids described above were assessed for efficacy through in vivo editing experiments. LNPs were formulated at a 1:2 w/w ratio of sgRNA (SEQ ID NO: 5) and Cas9 mRNA (SEQ ID NO: 3). Lipid components of the LNP were formulated in a molar ratio of 50% ionizable lipid, 38% cholesterol, 9% DSPC, and 3% C13 Ether. […]

[3] = Table 3, Experiments 1-13, LNP 50% ionizable lipid, 38% cholesterol, 9% DSPC, 3% PEG2K-DMG

Row | % E (encapsulation efficiency) [1, 3] | Number mean [2, 3] | PDI [2, 3] | Z-avg [2, 3] | % E (encapsulation efficiency) ([1]; Table 7, LNP with 3% C13 Ether) | Number mean ([2]; Table 7, LNP with 3% C13 Ether) | PDI ([2]; Table 7, LNP with 3% C13 Ether) | Z-avg ([2]; Table 7, LNP with 3% C13 Ether) | SMILES
1 | 98% | 70 nm | 0.06 | 80 nm |  |  |  |  | CCCCCCCCOC(CCC(=O)OCC(COC(=O)CCC(OCCCCCCCC)OCCCCCCCC)COC(=O)OCCCN(CC)CC)OCCCCCCCC [Compound 1, 2-((((3-(diethylamino)propoxy)carbonyl)oxy)methyl)propane-1,3-diyl bis(4,4-bis(octyloxy)butanoate)]
2 | 96% | 72 nm | 0.004 | 86 nm |  |  |  |  | CCCCCCCCC(CCCCCCCC)OC(=O)CCCCCC(=O)OCC(COC(=O)CCCCCC(=O)OC(CCCCCCCC)CCCCCCCC)COC(=O)OCCCN(CC)CC [Compound 3, O′1,O1-(2-((((3-(diethylamino)propoxy)carbonyl)oxy)methyl)propane-1,3-diyl) 7,7′-di(heptadecan-9-yl) di(heptanedioate)]
3 | 97% | 90 nm | 0.01 | 109 nm |  |  |  |  | CCCCCCC(CCCC)COC(=O)CCCCCC(=O)OCC(COC(=O)CCCCCC(=O)OCC(CCCC)CCCCCC)COC(=O)OCCCN(CC)CC (centres unmarked) [Compound 5, 7,7′-bis(2-butyloctyl) O′1,O1-(2-((((3-(diethylamino)propoxy)carbonyl)oxy)methyl)propane-1,3-diyl) di(heptanedioate)]
4 | 98% | 87 nm | 0.056 | 103 nm |  |  |  |  | CCCCCCCCC(CCCCCCCC)OC(=O)CCCC(=O)OCC(C)(COC(=O)CCCC(=O)OC(CCCCCCCC)CCCCCCCC)COC(=O)NCCN(CC)CC [Compound 36, O,O′-(2-((((2-(diethylamino)ethyl)carbamoyl)oxy)methyl)-2-methylpropane-1,3-diyl) di(heptadecan-9-yl) diglutarate]
5 | 98% | 75 nm | 0.05 | 83 nm |  |  |  |  | CCCCCCCCCCCC(=O)OCC(COC(=O)CCC(OCCCCCCCC)OCCCCCCCC)COC(=O)OCCCN(CC)CC (centres unmarked) [Compound 41, 3-((4,4-bis(octyloxy)butanoyl)oxy)-2-((((3-(diethylamino)propoxy)carbonyl)oxy)methyl)propyl Dodecanoate]
6 | 98% | 75 nm | 0.04 | 85 nm |  |  |  |  | CCCCCCCCOC(CCC(=O)OCC(COC(=O)CC(CCCC)CCCCCC)COC(=O)OCCCN(CC)CC)OCCCCCCCC (centres unmarked) [Compound 43, 3-((4,4-bis(octyloxy)butanoyl)oxy)-2-((((3-(diethylamino)propoxy)carbonyl)oxy)methyl)propyl 3-butylnonanoate]
7 | 94% | 81 nm | 0.02 | 87 nm |  |  |  |  | CCCCCCCCOC(CCC(=O)OCC(COC(=O)NCCN(CC)CC)COC(=O)C(CCCC)CCCCCC)OCCCCCCCC (centres unmarked) [Compound 48, 3-((4,4-bis(octyloxy)butanoyl)oxy)-2-((((2-(diethylamino)ethyl)carbamoyl)oxy)methyl)propyl 2-butyloctanoate]
8 |  |  |  |  | 96% | 73 nm | 0.02 | 80 nm | CCCCCCCCC(CCCCCCCC)CC(=O)OCCC(=O)OCC(COC(=O)CCCC(=O)OC(CCCCCCCC)CCCCCCCC)COC(=O)NCCN(CC)CC (centres unmarked) [Compound 63, 3-(((2-(diethylamino)ethyl)carbamoyl)oxy)-2-(((3-((3-octylundecanoyl)oxy)propanoyl)oxy)methyl)propyl heptadecan-9-yl Glutarate]
